Assay results from patent EP0609289B1, “IMIDAZOLE DERIVATIVES AND PHARMACEUTICAL COMPOSITIONS CONTAINING THE SAME” (THE UPJOHN COMPANY, priority 1991, dated 1993).

Tests used:
[1] = tested on: blood pressure increase by angiotensin II; assay: Antagonism to blood pressure increase by angiotensin II in a spine destroyed (pithed) rat (test 4); format: in vivo, Wistar rat; conditions: intravenous administration, 3µg/kg angiotensin II, read-out: Inhibition of blood pressure increase by angiotensin II in pithed rat ED50(mg/kg) (test 4)
From the text: 4) Antagonism to blood pressure increasing by angiotensin II in a spine destroyed rat
Wistar rat anaesthetized with pentobarbital was fixed at dorsal position, and a cannula for measuring blood pressure was inserted into sinister arteria carotis communis, and a cannula for administration of the test compound into dexter external jugular vein and a cannula for administration of angiotensin II into sinister external jugular vein, ambilateral nervus vagus was cut, and artificial respiration was carried out. A thin bar made of metal was stabbed into spinal column through sinister orbita to destroy spine. Blood pressure was recorded on polygraph via pressure transducer from an arterial cannula. After blood pressure was stable for more than 30 min., 3µg/kg of angiotensin II was administered intravenously four times every 15 min, and every 5 min. before the administration of angiotensin II from the second administration onward, a solvent, a lower dose of the test compound, and a higher dose of the test compound were administered intravenously in this order to observe the blood pressure increasing response by angiotensin II. ED50 values were calculated from the inhibiting rate when the first blood pressure increase by angiotensin II was regarded as 100 %.

[2] = molecular target: Angiotensin II receptor; assay: In vitro angiotensin II mesenteric artery receptor binding assay (test 1); conditions: rat mesenteric artery membrane fraction, 0.2 nM 125I-Ang II, 22°C, 90 minutes
Method: I) In vitro angiotensin II mesenteric artery receptor binding assay
According to the method (1) by Gunther et al., a membrane fraction was prepared from mesenteric artery of male rat, […] protein equivalent of it and 0.2 nM ^125I-Ang II as well as various concentrations of test compounds were incubated at 22°C for 90 minutes in an incubation buffer (50 mM Tris-HCl, 120 mM NaCl, 5 mM MgCl2. 0.25% bovine serum albumin, pH 7.2) (reaction volume; 200 µl). The incubated was cooled, and the reaction was stopped by addition of ice-cooled phosphate buffer (10 mM phosphate, 140 mM NaCI, pH 7.4, hereinafter referred to as PBS), and then the reaction solution was filtered through a glass fiber filter (Whatman CF/B), the filter was washed, dried, and then the radioactivity of captured ^125I-angiotensin II which bound to the receptor was measured by a γ-counter. Non-specific bound amount was obtained from the reaction in the presence of 1 µM of unlabeled angiotensin II. […] Res., 17:278-286, 1980].

Row | Molecule | ED50 [1] [mg/kg] | IC50 [2] [nM]
1 | CCCCc1nc2c(=O)n3n(c(=O)c2n1Cc1ccc(-c2ccccc2-c2nnn[nH]2)cc1)C1(CO)CCC3CC1 [Compound No. 222, 2-n-butyl-5,8-ethano-8-hydroxymethyl-5,6,7,8-tetrahydro-1-[{2'-(1H-tetrazol-5-yl)biphenyl-4-yl}methyl]-1H-1,3,4a,8a-tetraza-cyclopentanaphthalene-4,9-dione] | 0.56 | 3
2 | CCCCc1nc2c(=O)n3n(c(=O)c2n1Cc1ccc(-c2ccccc2-c2nn[nH]n2)cc1)C1CCC3(C(=O)OCC)CC1 [Compound No. 196, ethyl 2-n-butyl-4,9-dioxo-5,8-ethano-5,6,7,8-tetrahydro-1-[{2'-(1H-tetrazol-5-yl)biphenyl-4-yl}methyl]-1H-1,3,4a,8a-tetraza-cyclopentanaphthalene-5-carboxylate] | 0.23 | 4.6
3 | CCCc1nc2c(=O)n3n(c(=O)c2n1Cc1ccc(-c2ccccc2-c2nn[nH]n2)cc1)CC(C)C(C)C3 (stereo not drawn) [Compound No. 50, 6,7-dimethyl-2-n-propyl-5,6,7,8-tetrahydro-1-[(2'-(1H-tetrazol-5-yl)biphenyl-4-yl)methyl]-1H-1,3,4a,8a-tetraza-cyclopentanaphthalene-4,9-dione] | 0.2 | 5.3
4 | CCCCc1nc2c(=O)n3n(c(=O)c2n1Cc1ccc(-c2ccccc2-c2nn[nH]n2)cc1)CC(C)=C(C)C3 [compound 68, 2-n-butyl-5,8-dihydro-6,7-dimethyl-1-[(2'-(1H-tetrazol-5-yl)biphenyl-4-yl)methyl]-1H-1,3,4a,8a-tetraza-cyclopentanaphthalene-4,9-dione] | 0.56 | 8.1
5 | CCCCc1nc2c(=O)n3n(c(=O)c2n1Cc1ccc(-c2ccccc2-c2nn[nH]n2)cc1)C1(C(=O)NC(C)(C)C)CCC3CC1 [Compound No. 238, 2-n-butyl-4,9-dioxo-5,8-ethano-5,6,7,8-tetrahydro-1-[{2'-(1H-tetrazol-5-yl)biphenyl-4-yl}methyl]-1H-1,3,4a,8a-tetraza-cyclopentanaphthalene-8-carboxy-N-t-butylamide] |  | > 100
6 | CCCCc1nc2c(=O)n3n(c(=O)c2n1Cc1ccc(-c2ccccc2-c2nn[nH]n2)cc1)CCCC3 [Compound No. 47, 2-n-butyl-5,6,7,8-tetrahydro-1-[(2'-(1H-tetrazol-5-yl)biphenyl-4-yl)methyl]-1H-1,3,4a,8a-tetraza-cyclopentanaphthalene-4,9-dione] |  | 5.3
7 | CCCc1nc2c(=O)n3n(c(=O)c2n1Cc1ccc(-c2ccccc2-c2nn[nH]n2)cc1)C(C)CCC3C (stereo not drawn) [compound 337, 5,8-dimethyl-2-n-propyl-5,6,7,8-tetrahydro-1-[{2'-(1H-tetrazol-5-yl)biphenyl-4-yl}methyl]-1H-1,3,4a,8a-tetraza-cyclopentanaphthalene-4,9-dione] |  | 4.6
8 | CCCCc1nc2c(=O)n3n(c(=O)c2n1Cc1ccc(-c2ccccc2-c2nn[nH]n2)cc1)C1(C(=O)OC)CCC3CC1 [Compound No. 156, methyl 2-n-butyl-5,8-ethano-4,9-dioxo-5,6,7,8-tetrahydro-1-[{2'-(1H-tetrazol-5-yl)biphenyl-4-yl}methyl]-1H-1,3,4a,8a-tetraza-cyclopentanaphthalene-8-carboxylate] |  | 69
9 | CCCc1nc2c(=O)n3n(c(=O)c2n1Cc1ccc(-c2ccccc2-c2nnn[nH]2)cc1)C1(COCC(C)O)CCC3CC1 (stereo not drawn) [Compound No. 229, 5,8-ethano-8-(2-hydroxypropyl)methoxymethyl-2-n-propyl-5,6,7,8-tetrahydro-1-[{2'-(1H-tetrazol-5-yl)biphenyl-4-yl}methyl]-1H-1,3,4a,8a-tetraza-cyclopentanaphthalene-4,9-dione] |  | 8.7
10 | CCCCc1nc2c(=O)n3n(c(=O)c2n1Cc1ccc(-c2ccccc2-c2nn[nH]n2)cc1)C1CCC3(C(=O)NC(C)(C)C)CC1 [Compound No. 236, 2-n-butyl-4,9-dioxo-5,8-ethano-5,6,7,8-tetrahydro-1-[{2'-(1H-tetrazol-5-yl)biphenyl-4-yl}methyl]-1H-1,3,4a,8a-tetraza-cyclopentanaphthalene-5-carboxy-N-t-butylamide] | 0.11 | 32
11 | CCCc1nc2c(=O)n3n(c(=O)c2[nH]1)C(C)CCC3C (stereo not drawn) [Compound No. 280, 5,8-dimethyl-2-n-propyl-5 6,7,8-tetrahydro-1H-1,3,4a,8a-tetraza-cyclopentanaphthalene-4,9-dione] |  | 4.6
12 | CCCc1nc2c(=O)n3n(c(=O)c2n1Cc1ccc(-c2ccccc2-c2nn[nH]n2)cc1)C(C)CCC3c1nc(C)no1 (stereo not drawn) [Compound No. 329, 8-methyl-5-(3-methyloxadiazol-5-yl)-2-n-propyl-5,6,7,8-tetrahydro-1-[{2'-(1H-tetrazol-5-yl)biphenyl-4-yl}methyl]-1H-1,3,4a,8a-tetraza-cyclopentanaphthalene-4,9-dione] |  | 65
13 | C/C=C/c1nc2c(n1Cc1ccc(-c3ccccc3-c3nnn[nH]3)cc1)C(=O)N1N(C2)C2(CC)CCC1(CC)CC2 [compound 521, 5,8-diethyl-5,8-ethano-2-(1-E-propenyl)-5,6,7,8-tetrahydro-1-[{2'-(1H-tetrazol-5-yl)biphenyl-4-yl}methyl]-1H,4H-1,3,4a,8a-tetraza-cyclopentanaphthalene-9-one] |  | 9.1
14 | CCCc1nc2c(n1Cc1ccc(-c3ccccc3-c3nn[nH]n3)cc1)C(=O)N1CC(C)C(C)CN1C2 (stereo not drawn) [Compound No. 378, 6,7-dimethyl-2-n-propyl-5,6,7,8-tetrahydro-1-[{2'-(1H-tetrazol-5-yl)biphenyl-4-yl}methyl]-1H,4H-1,3,4a,8a-tetraza-cyclopentanaphthalene-9-one] |  | 4.6
15 | CCCc1nc2c(=O)n3n(c(=O)c2n1Cc1ccc(-c2ccccc2-c2nn[nH]n2)cc1)C1(C(=O)N(CCO)CCO)CCC3CC1 [Compound No. 241, 4,9-dioxo-5,8-ethano-2-n-propyl-5,6,7,8-tetrahydro-1-[{2'-(1H-tetrazol-5-yl)biphenyl-4-yl}methyl]-1H-1,3,4a,8a-tetraza-cyclopentanaphthalene-8-carboxy-N,N-bis(2-hydroxyethyl)amide] |  | 25
16 | CCCc1nc2c(=O)n3n(c(=O)c2n1Cc1ccc(-c2ccccc2-c2nn[nH]n2)cc1)C(c1nc(C)no1)CCC3C (stereo not drawn) [Compound No. 331, 5-methyl-8-(3-methyloxadiazol-5-yl)-2-n-propyl-5,6,7,8-tetrahydro-1-[{2'-(1H-tetrazol-5-yl)biphenyl-4-yl}methyl]-1H-1,3,4a,8a-tetraza-cyclopentanaphthalene-4,9-dione] |  | 3.9
17 | CCc1nc2c(=O)n3n(c(=O)c2n1Cc1ccc(-c2ccccc2-c2nnn[nH]2)cc1)C1CCC3CC1 [compound 543, 5,8-ethano-2-ethyl-5,6,7,8-tetrahydro-1-[{2'-(1H-tetrazol-5-yl)biphenyl-4-yl}methyl)-1H-1,3,4a,8a-tetraza-cyclopentanaphthalene-4,9-dione] |  | 26
18 | 2-n-butyl-5-hydroxymethyl-8-methyl-5,6,7,8-tetrahydro-1H,4H-1,3,4a,8a-tetraza-cyclopentanaphthalene-9-one [Compound No. 541] |  | > 100
19 | CCCCc1nc2c(n1Cc1ccc(-c3ccccc3-c3nnn[nH]3)cc1)CN1C(C)CCC(CO)N1C2=O (stereo not drawn) [Compound No. 538, 2-n-butyl-5-hydroxymethyl-8-methyl-5,6,7,8-tetrahydro-1-[{2'-(1H-tetrazol-5-yl)biphenyl-4-yl}methyl]-1H-9H-1,3,4a,8a-tetraza-cyclopentanaphthalene-4-one] |  | > 100
20 | CCCc1nc2c(=O)n3n(c(=O)c2n1Cc1ccc(-c2ccccc2-c2nnn[nH]2)cc1)C(C(=O)N(CC)CC)CCC3C (stereo not drawn) [Compound No. 205, 4,9-dioxo-5-methyl-2-n-propyl-5,6,7,8-tetrahydro-1-[{2'-(1H-tetrazol-5-yl)biphenyl-4-yl}methyl]-1H-1,3,4a,8a-tetraza-cyclopentanaphthalene-8-carboxy-N,N-diethylamide] |  | 47
21 | CCCc1nc2c(=O)n3n(c(=O)c2n1Cc1ccc(-c2ccccc2-c2nn[nH]n2)cc1)C1CCC3(C(=O)N(CCO)CCO)CC1 [Compound No. 239, 4,9-dioxo-5,8-ethano-2-n-propyl-5,6,7,8-tetrahydro-1-[{2'-(1H-tetrazol-5-yl)biphenyl-4-yl}methyl]-1H-1,3,4a,8a-tetraza-cyclopentanaphthalene-5-carboxy-N,N-bis(2-hydroxyethyl)amide] |  | > 100
22 | CCCc1nc2c(=O)n3n(c(=O)c2n1Cc1ccc(-c2ccccc2-c2nn[nH]n2)cc1)C1(C(=O)N(CC)CC)CCC3CC1 [Compound No. 233, 4,9-dioxo-5,8-ethano-2-n-propyl-5,6,7,8-tetrahydro-1-[{2'-(1H-tetrazol-5-yl)biphenyl-4-yl}methyl]-1H-1,3,4a,8a-tetraza-cyclopentanaphthalene-8-carboxy-N,N-diethylamide] |  | > 100
